Results published in patent US20230381322A1, “METHOD FOR PREPARING A DNA NETWORK WITH CONTROLLED CRYSTAL STRUCTURE AND A METHOD FOR INJECTING DRUGS USING THE DNA NETWORK” (UIF (University Industry Foundation), Yonsei University, priority 2022, published 2023).

Experiments:
[1] = system: HeLa cell-implanted BALB/c nude mice xenografts; assay: Localized anticancer therapy, intratumoral injection; type: in vivo; conditions: single intratumoral injection, 2.5 mg/kg Dox, day 8
Description: All animal experiments were performed in compliance with the relevant laws and institutional guidelines of the Korea Institute of Science and Technology (KIST; KIST-2020-108). To evaluate the anticancer effects of pDNets, tumor-bearing BALB/c nude mice were prepared by injecting a suspension of 5×10^6 cells per mouse. The mice were divided into five groups (n=5): (1) PBS, (2) free DOX, (3) pDNet-H, (4) pDNet-M, and (5) pDNet-L. Each mouse was injected intratumorally with 2.5 mg/kg Dox when the size of the tumors was approximately 100-150 mm ^3. The tumor volumes and body weights of each mouse were observed every 2 days for 8 days. The length (L) and width (W) of the tumors were measured, and tumor volumes (V) were calculated using the following formula: V=L×W^2×0.52. To assess the biocompatibility of the pDNets, mice in each group were sacrificed after 8 days and the major organs were excised. To assess the biosafety of pDNets, the excised organs were paraffin-embedded and cut into 5 μm sections. Hematoxylin and eosin (H&E) staining was performed to observe the histopathological changes.

[2] = system: HeLa cells; assay: Cytotoxicity of released Dox, MTT assay; type: cell-based; conditions: HeLa cells treated 24 h with Dox-released incubation solutions of pH 5.0, 6.4, 7.4
Description: Cell adhesion efficiencies were evaluated by incubating GelRed-labeled pDNets in cell media containing 2.5×10^5 Hela or NIH/3T3 cells for an hour. After the incubation, Calcein AM was used to stain the attached cells and the pDNets were washed three times with PBS. After staining, CLSM was used to visualize the respective fluorescence to determine the number of cells attached to each pDNet/mm^2. Evaluation of intracellular delivery of released Dox from pDNets was performed by loading pDNets with 20 nmol Dox. Dox-loaded pDNets were incubated in a pH 5.0, 6.4, and […] PBS solution for 32 h, which were then diluted 1, 2, and 4-fold with Dulbecco's modified Eagle's medium and used to treat 1×10^5 HeLa cells for 2 h. As a positive control, 20 nmol free Dox diluted similarly was used for treatment at final concentrations of 2, 4, and 8 μM to represent complete release of Dox. After the incubation, cell nuclei were stained with Hoechst and the intracellular delivery of Dox was compared using CLSM. […] After 24 h of treatment, cell viability was quantified using the MTT assay (Roche Diagnostics, Mannheim, Germany) following the manufacturer's protocol. […] The resulting formazan salts were dissolved by adding dimethyl sulfoxide, and the absorbance was measured at 570 nm using a multi-label microplate reader (Victor X5; Perkin Elmer).

SMILES: COc1cccc2c1C(=O)c1c(O)c3c(c(O)c1C2=O)C[C@@](O)(C(=O)CO)C[C@@H]3O[C@H]1C[C@H](N)[C@H](O)[C@H](C)O1 [free Dox, doxorubicin]
- tumor volume reduction relative to the control group [1]: ~35%
- tumor weight reduction relative to the control group [1]: ~35%
- in vitro therapeutic effect (cell viability, MTT) [2]: most effective in vitro
